What all share (type): in vivo
One assay deals with Male Sprague-Dawley rats. Kind of assay: Effect on energy expenditure of rats. Conditions: Rattus norvegicus, po; for response vs control in vivo at 0.57 mg/kg: dose 0.57 mg/kg p.o.; for response vs control in vivo at 0.57 mg/kg / response vs control in vivo at 10.3 mg/kg / response vs control in vivo at 5.8 mg/kg / response vs control in vivo at 26.4 mg/kg / response vs control in vivo at 9.4 mg/kg / response vs control in vivo at 10.4 mg/kg / response vs control in vivo at 4.73 mg/kg: percentage of the rate of energy expenditure of the rats dosed with water, fasted rats; for response vs control in vivo at 10.3 mg/kg: dose 10.3 mg/kg p.o.; for response vs control in vivo at 5.8 mg/kg: dose 5.8 mg/kg p.o.; for response vs control in vivo at 26.4 mg/kg: dose 26.4 mg/kg p.o.; for response vs control in vivo at 9.4 mg/kg: dose 9.4 mg/kg p.o.; for response vs control in vivo at 10.4 mg/kg: dose 10.4 mg/kg p.o.; for response vs control in vivo at 4.73 mg/kg: dose 4.73 mg/kg p.o. As for the experimental part: Male Sprague-Dawley rats each weighing between 170-200 g were deprived of food for 16 hours before, and during the experiment. Water was provided ab lib at all times. The compounds were administered orally in water to 3 or 4 rats. A further 4 rats were dosed orally with water. The rats were placed in boxes through which air was drawn and the oxygen content of the air leaving the boxes was measured. The energy expenditure of the rats was calculated for 3 hours and for 21 hours after dosing from the volume of air leaving the boxes and its oxygen content, following the pinciples described by J. B. de V. Weir, J. Physiol. (London) 109, 1-9 (1949). The results are expressed as a percentage of the rate of energy expenditure of the rats dosed with water.

A further assay relates to Female CFLP mice. The assay can be described thus: Anti-hyperglycaemic activity (glucose tolerance after subcutaneous glucose load). To be noted: 24 h fasted mice, glucose 1 g/kg s.c. 30 min after dosing, 2 hour period, compared with water controls. As for the experimental part:
Female CFLP mice, weighing approximately 25 g, were fasted for 24 hours prior to the study. The compound under study was administered orally as an aqueous solution to each of 6 mice. 30 minutes later a blood sample (10 µl) was obtained from the tail for the analysis of blood glucose. Immediately after taking this blood sample, glucose (1 g/kg body weight) was administered subcutaneously to each mouse. 6 mice were given water as a control. Blood samples were then obtained from each mouse at 30 minute intervals for 120 minutes.
Compounds that produce a significant (P<0.05) reduction of blood glucose, compared with control mice given water, at any time interval, are considered active. The area under the blood glucose curve over the 2 hour period after the administration of the glucose was calculated for the compounds and compared with the value for control animals.

For the next assay, the system named is Female BALB/c mice. Kind of assay: Anti-obesity activity (weight of parametrial fat pads). Conditions: 5.8 mg/kg of diet, added to the diet for 3 days, treated animals compared with controls, mean of 9 values. As for the experimental part: Female BALB/c mice were trained to feed on powdered oxoid for 1 week. They were then housed in threes and the compound under study was added to the diet for 3 days. Food was removed at 09.00h and the mice were killed at 11.00h. The parmetrial fat pads were weighed as pairs. The result is a mean of 9 values.
The compound of Example Number 3 gave a 38% reduction in weight of perigenital adipose tissue in. treated animals compared with controls when given at a dose of 5.8 mg/kg of diet.

[1] abbreviates: 3 h, read-out: Mean Energy Expenditure (0—3h).
[2] abbreviates: 21 h, read-out: Mean Energy Expenditure (9—21h).

Where a name gives a salt, the structure may show the parent alone. Read-outs that look alike come from different tables or passages of the source.

In the case of `COC(=O)COc1ccc(CC(C)N(CC(O)c2cccc(Cl)c2)CC(O)c2cccc(Cl)c2)cc1.Cl.O` (stereo not drawn) [Example 1, Methyl 4-[2-[bis-[β-hydroxy-3-chlorophenethyl]amino]propyl]phenoxyacetate hydrochloride monohydrate], the response vs control in vivo at 0.57 mg/kg in the assay with Male Sprague-Dawley rats (setting [1]) came to 132%; with Male Sprague-Dawley rats (setting [2]), 110%. Further, in the assay with Female CFLP mice (dose 5 µmol/kg orally), the “% Reduction in area under Blood Glucose Curve” value (from here on “% Reduction in area”) came out at 55%.
For `CCOC(=O)COc1ccc(C[C@@H](C)N(C[C@H](O)c2ccccc2)C[C@H](O)c2ccccc2)cc1.Cl` [Example 2, Ethyl 4-[(R)-2-[bis-[(R)-β-hydroxyphenethyl]amino]propyl]phenoxyacetate hydrochloride], the response vs control in vivo at 10.3 mg/kg worked out at 146% in the assay on Male Sprague-Dawley rats (setting [1]) and 143% in the assay on Male Sprague-Dawley rats (setting [2]). Further, in the assay with Female CFLP mice (dose 2.5 µmol/kg orally), the “% Reduction in area” value amounted to 52%.
With `CCOC(=O)COc1ccc(C[C@@H](C)N(C[C@H](O)c2cccc(Cl)c2)C[C@H](O)c2cccc(Cl)c2)cc1.Cl` [Example 3, Ethyl 4-[(R)-2-[bis-[(R)-β-hydroxy-3-chlorophenethyl]amino]propyl]phenoxyacetate hydrochloride], the “reduction in weight of perigenital adipose tissue” value in the assay on Female BALB/c mice came to 38%. Also, the response vs control in vivo at 5.8 mg/kg turned out to be 144% with Male Sprague-Dawley rats (setting [1]) and 132% in the assay with Male Sprague-Dawley rats (setting [2]).
For `CCOC(=O)COc1ccc(CC[C@@H](C)N(C[C@H](O)c2ccccc2)C[C@H](O)c2ccccc2)cc1.Cl` [Example 4, Ethyl 4-[(R)-3-[bis-[(R)-β-hydroxyphenethyl]amino]butyl]phenoxyacetate hydrochloride], the response vs control in vivo at 26.4 mg/kg in the assay on Male Sprague-Dawley rats (setting [1]) was 111%; in the assay on Male Sprague-Dawley rats (setting [2]) it was 99%. Also, the “% Reduction in area” value with Female CFLP mice (dose 12.5 µmol/kg orally) is 42%.
Consider `C[C@H](Cc1ccc(OCCO)cc1)N(C[C@H](O)c1ccccc1)C[C@H](O)c1ccccc1` [Example 5, 4-[(R)-2-[bis-[(R)-β-hydroxyphenethyl]amino]propyl]phenoxyethanol hydrochloride], for which the response vs control in vivo at 9.4 mg/kg in the assay on Male Sprague-Dawley rats (setting [1]) was 159%; in the assay on Male Sprague-Dawley rats (setting [2]) it was 152%. Besides, the “% Reduction in area” value in the assay on Female CFLP mice (dose 2.5 µmol/kg orally) is listed as 54%.
For the compound `CNC(=O)COc1ccc(C[C@@H](C)N(C[C@H](O)c2ccccc2)C[C@H](O)c2ccccc2)cc1.Cl` [Example 6, N-Methyl 4-[(R)-2-[bis-[(R)-β-hydroxyphenethyl]amino]propyl]phenoxyacetamide hydrochloride], the response vs control in vivo at 10 mg/kg in the assay with Male Sprague-Dawley rats (setting [1]) came to 154%; in the assay on Male Sprague-Dawley rats (setting [2]), 147%. The “% Reduction in area” value with Female CFLP mice (dose 2.5 µmol/kg orally) is on record as 52%.
Consider `CNCCOc1ccc(C[C@@H](C)N(C[C@H](O)c2ccccc2)C[C@H](O)c2ccccc2)cc1` [Example 7, N-Methyl 4-[(R)-2-[bis-[(R)-β-hydroxyphenethyl]amino]propyl]phenoxy ethylamine dihydrochloride], for which the response vs control in vivo at 10.4 mg/kg was found to be 145% with Male Sprague-Dawley rats (setting [1]) and 146% in the assay on Male Sprague-Dawley rats (setting [2]). The “% Reduction in area” value in the assay with Female CFLP mice (dose 2.5 µmol/kg orally) came to 50%.
For the compound `C[C@H](COc1ccc(OCC(N)=O)cc1)N(C[C@H](O)c1ccccc1)C[C@H](O)c1ccccc1` [Example 8, 4-[(R)-2-[bis-[(R)-β-hydroxyphenethyl]amino]propoxy]phenoxyacetamide hydrochloride], the response vs control in vivo at 4.73 mg/kg with Male Sprague-Dawley rats (setting [1]) came out at 113%; with Male Sprague-Dawley rats (setting [2]), 103%.

The values above are taken from patent EP0164700B1, “Bis(beta-hydroxy phenethyl)amines” (BEECHAM GROUP PLC, priority 1984, dated 1985).
